# Values of other authors in EP0497915B1, “hPTH (1-37) FRAGMENT, ITS PRODUCTION, DRUG CONTAINING IT AND ITS USE” (HaemoPep Pharma GmbH, priority 1989, dated 1991).
# B1: hPTH-(1-84): sezerniertes PTH-Molekül aus 84 Aminosäuren (peptide, UniProt P01270 32-115, looked up)
# Parathyroid hormone: SVSEIQLMHNLGKHLNSMERVEWLRKKLQDVHNFVALGAPLAPRDAGSQRPRKKEDNVLVESHEKSLGEADKADVNVLTKAKSQ
# modifications: Parathyroid hormone
# notes: sezerniertes PTH-Molekül aus 84 Aminosäuren
# Columns and labels:
# [1] = tested on: hPTH-(44-68)-RIA; conditions: commercial RIA (Immundiagnostik), manufacturer's data
# [2] = tested on: hPTH-(53-84)-RIA; conditions: commercial RIA (Immundiagnostik), manufacturer's data
Molecule,Kreuzreaktion im hPTH-(44-68)-RIA [1],Kreuzreaktion im hPTH-(53-84)-RIA [2]
"hPTH-(28-48): synthetisches hPTH-Peptid (LQDVHNFVALGAPLAPRDAGS; Parathyroid hormone; UniProt P01270 59-79, looked up, fragment)",keine Kreuzreaktion,keine Kreuzreaktion
"hPTH-(53-84): synthetisches hPTH-Peptid, Standard des C-terminalen RIA (KKEDNVLVESHEKSLGEADKADVNVLTKAKSQ; Parathyroid hormone; UniProt P01270 84-115, looked up, fragment)",100%,–
"hPTH-(44-68): synthetisches hPTH-Peptid, Standard des mittelregionalen RIA (RDAGSQRPRKKEDNVLVESHEKSLG; Parathyroid hormone; UniProt P01270 75-99, looked up, fragment)",–,keine Kreuzreaktion
"hPTH-(64-84): synthetisches hPTH-Peptid (EKSLGEADKADVNVLTKAKSQ; Parathyroid hormone; UniProt P01270 95-115, looked up, fragment)",keine Kreuzreaktion,100%
"hPTH-(1-34): bekanntes synthetisches N-terminales hPTH-Fragment (SVSEIQLMHNLGKHLNSMERVEWLRKKLQDVHNF; Parathyroid hormone; UniProt P01270 32-65, looked up, fragment)",keine Kreuzreaktion,keine Kreuzreaktion
B1,100%,100%
